Each structure is given as a SMILES string.

One assay concerns adrenergic α1 receptor. Briefly: Binding assay α1 (non-selective), [3H]prazosin, rat cerebral cortex. The note with it: percent inhibition of control specific binding; compounds tested at 1×10^−6 M. The gist of the method:
(§1)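 Binding read by scintillation counting. Non-specific component defined by excess unlabelled ligand and removed from total counts. Compounds at 1×10^−6 M.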

Assay [1] has as its target T1, serotoninergic receptor 5-HT2C (Homo sapiens, UniProt P28335).
T1 construct: expressed in transfected cells; host or cells: HEK-293 cells
T1 sequence (P28335 33-458): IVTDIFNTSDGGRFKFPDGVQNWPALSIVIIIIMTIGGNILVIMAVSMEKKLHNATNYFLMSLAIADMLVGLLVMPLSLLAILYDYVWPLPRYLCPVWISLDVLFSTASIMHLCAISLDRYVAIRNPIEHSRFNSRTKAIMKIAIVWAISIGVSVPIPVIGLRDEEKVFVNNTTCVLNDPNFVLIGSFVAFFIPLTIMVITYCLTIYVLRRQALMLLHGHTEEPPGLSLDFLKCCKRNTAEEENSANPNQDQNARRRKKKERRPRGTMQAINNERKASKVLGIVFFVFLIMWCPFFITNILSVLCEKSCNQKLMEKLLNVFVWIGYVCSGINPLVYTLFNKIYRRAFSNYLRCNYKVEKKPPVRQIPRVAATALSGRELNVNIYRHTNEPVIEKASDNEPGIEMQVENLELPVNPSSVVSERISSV
Briefly: Binding assay 5-HT2C (h), [3H]mesulergine, HEK-293 cells. The note with it: read-out: 5-HT2C [%]. The gist of the method:
as §1

Another assay concerns the target T2, adrenergic α2C receptor (Homo sapiens, UniProt P18825).
T2 sequence (P18825 1-462): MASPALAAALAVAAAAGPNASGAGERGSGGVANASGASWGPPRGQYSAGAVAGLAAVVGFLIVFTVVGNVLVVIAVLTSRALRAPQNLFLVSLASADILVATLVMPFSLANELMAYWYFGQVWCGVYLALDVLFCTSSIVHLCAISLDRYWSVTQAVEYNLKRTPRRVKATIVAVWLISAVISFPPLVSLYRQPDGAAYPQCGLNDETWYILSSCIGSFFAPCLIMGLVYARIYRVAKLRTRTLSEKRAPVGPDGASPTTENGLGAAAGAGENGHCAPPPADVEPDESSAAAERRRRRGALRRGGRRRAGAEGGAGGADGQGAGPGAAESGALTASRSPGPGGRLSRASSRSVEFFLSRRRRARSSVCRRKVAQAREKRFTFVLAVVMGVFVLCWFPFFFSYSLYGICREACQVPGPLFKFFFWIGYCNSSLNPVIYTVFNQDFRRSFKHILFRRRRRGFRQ
Briefly: Binding assay α2C (h), [3H]RX 821002, CHO cells. Details: expressed in transfected cells; host or cells: CHO cells. The note with it: read-out: α2C [%]. The gist of the method:
as §1

Assay [2] addresses serotoninergic 5-HT7 receptor (Homo sapiens, UniProt P34969). Briefly: Binding assay 5-HT7 (h), [3H]LSD, CHO cells. The arrangement: expressed in transfected cells; host or cells: CHO cells. The conditions noted are these: read-out: 5-HT7. The gist of the method:
as §1

Assay [3] deals with serotoninergic 5-HT6 receptor (Homo sapiens, UniProt P50406). Briefly: Binding assay 5-HT6 (h), [3H]LSD, CHO cells. The arrangement: expressed in transfected cells; host or cells: CHO cells. The conditions noted are these: read-out: 5-HT6. The gist of the method:
as §1

The target of assay [4] is T3, serotonine transporter (SERT) receptor (Homo sapiens, UniProt P31645).
T3 construct: expressed in transfected cells; host or cells: CHO cells
T3 sequence (P31645 whole entry): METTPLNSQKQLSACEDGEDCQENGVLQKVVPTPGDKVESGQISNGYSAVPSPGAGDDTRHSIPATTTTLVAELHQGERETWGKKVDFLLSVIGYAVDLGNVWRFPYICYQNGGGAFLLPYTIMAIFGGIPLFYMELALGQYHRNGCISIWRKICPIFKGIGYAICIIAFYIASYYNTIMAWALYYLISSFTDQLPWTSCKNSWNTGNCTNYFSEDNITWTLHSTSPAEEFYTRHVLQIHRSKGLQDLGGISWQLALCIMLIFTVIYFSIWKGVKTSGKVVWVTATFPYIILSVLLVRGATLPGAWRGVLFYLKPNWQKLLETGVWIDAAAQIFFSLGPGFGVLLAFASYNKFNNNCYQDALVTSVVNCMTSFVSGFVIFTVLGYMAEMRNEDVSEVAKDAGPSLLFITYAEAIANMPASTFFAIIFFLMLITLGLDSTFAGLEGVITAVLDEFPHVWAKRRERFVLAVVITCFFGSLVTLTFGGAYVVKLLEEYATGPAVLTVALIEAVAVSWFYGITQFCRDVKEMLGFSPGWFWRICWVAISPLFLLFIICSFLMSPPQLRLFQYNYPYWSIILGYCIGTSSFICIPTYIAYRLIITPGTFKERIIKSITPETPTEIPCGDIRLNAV
Briefly: Binding assay SERT (h), [3H]imipramine, CHO cells. The conditions noted are these: read-out: SERT [%]. The gist of the method:
as §1

Assay [5] addresses histaminergic H1 receptor (Homo sapiens, UniProt P35367). Briefly: Binding assay H1 (h), [3H]pyrilamine, HEK-293 cells. The arrangement: expressed in transfected cells; host or cells: HEK-293 cells. The note with it: read-out: H1 [%]. The gist of the method:
as §1

For the next assay, the system named is sigma σ receptor. Briefly: Binding assay σ (non-selective), [3H]DTG, rat cerebral cortex. The note with it: percent inhibition of control specific binding; compounds tested at 1×10^−6 M. The gist of the method: as §1
In assay [6] the target is serotoninergic 5-HT2A receptor (Homo sapiens, UniProt P28223). Briefly: Binding assay 5-HT2A (h), [3H]ketanserin, HEK-293 cells. The arrangement: expressed in transfected cells; host or cells: HEK-293 cells. The note with it: read-out: 5-HT2A. The gist of the method: as §1
Sequence of serotoninergic 5-HT2A receptor (P28223 whole entry): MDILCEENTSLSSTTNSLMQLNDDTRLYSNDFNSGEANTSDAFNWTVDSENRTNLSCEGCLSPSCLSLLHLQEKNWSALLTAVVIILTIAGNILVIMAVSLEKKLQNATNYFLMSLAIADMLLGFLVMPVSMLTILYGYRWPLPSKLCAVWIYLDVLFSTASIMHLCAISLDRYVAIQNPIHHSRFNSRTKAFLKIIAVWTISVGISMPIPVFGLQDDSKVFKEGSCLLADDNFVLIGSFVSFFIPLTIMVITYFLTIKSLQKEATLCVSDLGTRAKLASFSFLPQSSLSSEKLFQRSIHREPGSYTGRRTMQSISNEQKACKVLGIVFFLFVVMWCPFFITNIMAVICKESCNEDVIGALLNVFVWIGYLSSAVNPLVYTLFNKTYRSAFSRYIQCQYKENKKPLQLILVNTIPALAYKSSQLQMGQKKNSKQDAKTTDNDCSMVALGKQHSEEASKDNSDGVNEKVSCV
The target in assay [7] is T4, serotoninergic 5-HT1A receptor (Homo sapiens, UniProt P08908).
T4 sequence (P08908 1-422): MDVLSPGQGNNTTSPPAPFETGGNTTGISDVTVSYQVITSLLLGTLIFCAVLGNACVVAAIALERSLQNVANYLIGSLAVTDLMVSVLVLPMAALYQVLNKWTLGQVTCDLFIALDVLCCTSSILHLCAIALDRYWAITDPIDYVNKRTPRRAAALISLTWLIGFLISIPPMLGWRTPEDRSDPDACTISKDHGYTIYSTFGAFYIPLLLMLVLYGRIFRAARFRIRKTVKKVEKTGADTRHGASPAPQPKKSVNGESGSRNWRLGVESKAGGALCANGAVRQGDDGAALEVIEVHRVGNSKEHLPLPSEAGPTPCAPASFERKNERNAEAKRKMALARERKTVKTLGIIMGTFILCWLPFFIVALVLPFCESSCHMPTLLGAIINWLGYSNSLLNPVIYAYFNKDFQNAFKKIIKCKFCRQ
Briefly: Binding assay 5-HT1A (h), [3H]8-OH-DPAT, HEK-293 cells. The arrangement: expressed in transfected cells; host or cells: HEK-293 cells. The conditions noted are these: read-out: 5-HT1A. The gist of the method: as §1

In the next assay the target is dopaminergic D2 receptor (Homo sapiens, UniProt P14416). Briefly: Binding assay D2S (h), [3H]methyl-spiperone, HEK-293 cells. Details: expressed in transfected cells; host or cells: HEK-293 cells. The note with it: read-out: D2 [%]. The gist of the method: as §1
Sequence of dopaminergic D2 receptor (P14416 1-414 isoform P14416-2): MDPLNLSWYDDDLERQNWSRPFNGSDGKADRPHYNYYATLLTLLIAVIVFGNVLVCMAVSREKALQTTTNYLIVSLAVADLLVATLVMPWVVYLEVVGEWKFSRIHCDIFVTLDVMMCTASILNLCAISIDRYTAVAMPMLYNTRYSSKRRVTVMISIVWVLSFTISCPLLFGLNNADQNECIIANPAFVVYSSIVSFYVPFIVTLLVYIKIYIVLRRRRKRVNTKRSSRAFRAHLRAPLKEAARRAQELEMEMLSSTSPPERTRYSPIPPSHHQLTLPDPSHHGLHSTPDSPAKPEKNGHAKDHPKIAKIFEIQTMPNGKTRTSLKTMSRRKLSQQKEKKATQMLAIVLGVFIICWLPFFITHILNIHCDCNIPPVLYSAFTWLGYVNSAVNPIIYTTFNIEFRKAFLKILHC
The next assay concerns the target T5, muscarinic M3 receptor (Homo sapiens, UniProt P20309).
T5 construct: expressed in transfected cells; host or cells: CHO cells
Briefly: Binding assay M3 (h), [3H]4-DAMP, CHO cells. The conditions noted are these: read-out: M3 [%]. The gist of the method: as §1

The target of the next assay is dopaminergic D3 receptor (Homo sapiens, UniProt P35462). Briefly: Binding assay D3 (h), [3H]methyl-spiperone, CHO cells. The note with it: read-out: D3 [%]. The arrangement: expressed in transfected cells; host or cells: CHO cells. The gist of the method: as §1
Sequence of dopaminergic D3 receptor (P35462 whole entry): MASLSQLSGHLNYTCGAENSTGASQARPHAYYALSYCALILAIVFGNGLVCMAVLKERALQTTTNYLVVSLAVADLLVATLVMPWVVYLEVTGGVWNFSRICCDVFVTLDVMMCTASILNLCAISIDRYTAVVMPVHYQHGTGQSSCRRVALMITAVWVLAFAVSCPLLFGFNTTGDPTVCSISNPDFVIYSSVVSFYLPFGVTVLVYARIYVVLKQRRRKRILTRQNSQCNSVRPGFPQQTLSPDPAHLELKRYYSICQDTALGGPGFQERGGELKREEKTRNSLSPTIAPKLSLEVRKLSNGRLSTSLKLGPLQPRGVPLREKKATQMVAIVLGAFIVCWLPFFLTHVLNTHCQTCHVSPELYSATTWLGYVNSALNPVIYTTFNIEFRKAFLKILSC

Sequence of histaminergic H1 receptor (P35367 whole entry): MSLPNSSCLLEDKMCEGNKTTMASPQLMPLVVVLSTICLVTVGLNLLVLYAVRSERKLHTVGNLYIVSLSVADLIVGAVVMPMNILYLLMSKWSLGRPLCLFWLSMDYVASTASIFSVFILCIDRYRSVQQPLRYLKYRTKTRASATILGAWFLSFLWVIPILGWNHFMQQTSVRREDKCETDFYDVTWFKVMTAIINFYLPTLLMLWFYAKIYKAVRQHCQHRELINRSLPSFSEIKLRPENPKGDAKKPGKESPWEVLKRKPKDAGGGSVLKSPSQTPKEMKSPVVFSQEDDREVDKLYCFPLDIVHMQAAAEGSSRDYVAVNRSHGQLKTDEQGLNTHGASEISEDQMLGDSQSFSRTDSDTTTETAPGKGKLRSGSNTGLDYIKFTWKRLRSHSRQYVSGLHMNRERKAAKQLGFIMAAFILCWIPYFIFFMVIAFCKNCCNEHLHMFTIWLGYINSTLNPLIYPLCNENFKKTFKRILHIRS
Sequence of serotoninergic 5-HT6 receptor (P50406 whole entry): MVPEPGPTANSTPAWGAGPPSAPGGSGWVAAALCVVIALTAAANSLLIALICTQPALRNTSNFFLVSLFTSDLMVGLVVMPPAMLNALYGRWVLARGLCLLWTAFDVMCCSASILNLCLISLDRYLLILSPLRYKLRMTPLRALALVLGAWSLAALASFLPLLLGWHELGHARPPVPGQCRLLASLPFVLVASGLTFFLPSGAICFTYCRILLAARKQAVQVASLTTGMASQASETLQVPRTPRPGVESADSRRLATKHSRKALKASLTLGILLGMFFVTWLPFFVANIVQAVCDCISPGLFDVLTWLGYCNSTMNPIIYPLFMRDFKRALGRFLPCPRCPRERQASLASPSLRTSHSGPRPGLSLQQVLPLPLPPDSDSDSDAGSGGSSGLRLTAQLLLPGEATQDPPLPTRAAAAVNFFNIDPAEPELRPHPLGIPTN
Sequence of serotoninergic 5-HT7 receptor (P34969 whole entry): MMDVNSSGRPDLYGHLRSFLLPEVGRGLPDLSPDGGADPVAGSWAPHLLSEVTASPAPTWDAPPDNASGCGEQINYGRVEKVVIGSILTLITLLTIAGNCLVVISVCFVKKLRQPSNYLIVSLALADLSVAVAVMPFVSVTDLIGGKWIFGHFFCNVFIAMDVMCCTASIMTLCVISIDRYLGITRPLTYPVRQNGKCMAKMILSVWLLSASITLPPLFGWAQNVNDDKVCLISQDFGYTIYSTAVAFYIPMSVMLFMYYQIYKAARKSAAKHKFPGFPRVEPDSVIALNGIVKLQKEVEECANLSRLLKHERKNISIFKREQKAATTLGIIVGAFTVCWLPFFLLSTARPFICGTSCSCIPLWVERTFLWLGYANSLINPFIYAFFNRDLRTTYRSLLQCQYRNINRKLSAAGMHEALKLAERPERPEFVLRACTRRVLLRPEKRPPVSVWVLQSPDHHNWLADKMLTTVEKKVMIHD
T5 sequence (P20309 whole entry): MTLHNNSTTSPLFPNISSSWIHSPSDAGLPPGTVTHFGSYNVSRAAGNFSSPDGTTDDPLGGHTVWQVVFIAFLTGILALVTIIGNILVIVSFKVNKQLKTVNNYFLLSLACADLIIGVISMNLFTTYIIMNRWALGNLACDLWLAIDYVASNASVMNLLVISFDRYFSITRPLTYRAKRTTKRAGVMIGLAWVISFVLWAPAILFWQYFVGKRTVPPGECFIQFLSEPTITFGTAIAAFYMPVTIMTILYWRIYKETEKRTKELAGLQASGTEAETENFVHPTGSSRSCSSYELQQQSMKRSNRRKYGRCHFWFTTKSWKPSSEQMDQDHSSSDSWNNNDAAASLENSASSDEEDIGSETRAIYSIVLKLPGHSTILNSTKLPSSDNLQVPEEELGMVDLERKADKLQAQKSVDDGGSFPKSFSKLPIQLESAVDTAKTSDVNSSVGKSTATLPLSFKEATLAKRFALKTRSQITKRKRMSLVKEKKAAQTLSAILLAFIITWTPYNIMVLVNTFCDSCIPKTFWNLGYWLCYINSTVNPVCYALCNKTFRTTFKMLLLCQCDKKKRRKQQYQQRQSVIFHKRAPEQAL

For the compound `O=S(=O)(NCCCN1CCN(c2nsc3ccccc23)CC1)c1ccc(-c2ccccc2)cc1` [Compound 260, N-[3-[4-(1,2-Benzothiazol-3-yl)piperazin-1-yl]propyl]-4-phenylbenzenesulphonamide], in the assay on adrenergic α1 receptor, the “α1 [%]” value is 91%. The inhibition at 1 µM was found to be 90% in assay [1]; 99% at adrenergic α2C receptor; 100% in assay [2]; 92% in assay [3]; 90% in assay [4]; 95% in assay [5]. Further, the inhibition at 1 µM was found to be 102% in assay [6]; 96% in assay [7]; 99% at dopaminergic D2 receptor; 11% on muscarinic M3 receptor; 98% on dopaminergic D3 receptor. In the assay on sigma σ receptor, the “σ [%]” value worked out at 41%.
In the case of `O=S(=O)(NCCCN1CCN(c2nsc3ccccc23)CC1)c1cccs1` [Compound 261, N-[3-[4-(1,2-Benzothiazol-3-yl)piperazin-1-yl]propyl]thiophene-2-sulphonamide], the “α1 [%]” value with adrenergic α1 receptor was −90%. Besides, the inhibition at 1 µM in assay [1] was found to be 87%; on adrenergic α2C receptor, 92%; in [2] it was 100%; in assay [3], 83%; in assay [4], 60%; in assay [5] it was 92%. For the same compound, the inhibition at 1 µM in assay [6] amounted to 102%; in assay [7] it was 98%; on dopaminergic D2 receptor, 97%; on muscarinic M3 receptor, 15%; at dopaminergic D3 receptor, 98%. Besides, the “σ [%]” value in the assay on sigma σ receptor is reported as 57%.
Take `O=S(=O)(NCCCN1CCN(c2nsc3ccccc23)CC1)c1cc2ccccc2s1` [Compound 262, N-[3-[4-(1,2-Benzothiazol-3-yl)piperazin-1-yl]propyl]benzothiophene-2-sulphonamide]: the “α1 [%]” value in the assay on adrenergic α1 receptor is on record as 95%. Moreover, the inhibition at 1 µM was found to be 84% in [1]; 94% at adrenergic α2C receptor; 99% in assay [2]; 93% in assay [3]; 87% in assay [4]; 95% in [5]. Besides, the inhibition at 1 µM came to 102% in assay [6]; 99% in assay [7]; 98% at dopaminergic D2 receptor; 19% on muscarinic M3 receptor; 98% on dopaminergic D3 receptor. In addition, in the assay on sigma σ receptor, the “σ [%]” value is reported as 51%.
For the compound `O=S(=O)(NCCCN1CCN(c2nsc3ccccc23)CC1)c1csc2ccccc12` [Compound 263, N-[3-[4-(1,2-Benzothiazol-3-yl)piperazin-1-yl]propyl]benzothiophene-3-sulphonamide], the “α1 [%]” value in the assay with adrenergic α1 receptor is reported as 90%. The inhibition at 1 µM stood at 87% in [1]; 93% at adrenergic α2C receptor; 98% in [2]; 96% in [3]; 87% in assay [4]; 93% in assay [5]. For the same compound, the inhibition at 1 µM in assay [6] came to 102%; in [7], 98%; at dopaminergic D2 receptor it was 98%; on muscarinic M3 receptor it was 7%; on dopaminergic D3 receptor it was 98%. In addition, in the assay on sigma σ receptor, the “σ [%]” value is on record as 49%.
On to `O=S(=O)(NCCCN1CCN(c2nsc3ccccc23)CC1)c1cccc2scnc12` [Compound 267, N-[3-[4-(1,2-Benzothiazol-3-yl)piperazin-1-yl]propyl]-1,3-benzothiazole-4-sulphonamide], for which, in the assay with adrenergic α1 receptor, the “α1 [%]” value is given as 97%. Besides, the inhibition at 1 µM was 78% in assay [1]; 99% on adrenergic α2C receptor; 100% in [2]; 95% in assay [3]; 91% in [4]; 92% in assay [5]. Besides, the inhibition at 1 µM worked out at 101% in assay [6]; 98% in [7]; 100% at dopaminergic D2 receptor; 13% on muscarinic M3 receptor; 99% on dopaminergic D3 receptor. Also, the “σ [%]” value in the assay on sigma σ receptor amounted to 50%.
For the compound `O=S(=O)(NCCCN1CCN(c2nsc3ccccc23)CC1)c1ccc2cn[nH]c2c1` [Compound 268, N-[3-[4-(1,2-Benzothiazol-3-yl)piperazin-1-yl]propyl]-1H-indazole-6-sulphonamide], in the assay with adrenergic α1 receptor, the “α1 [%]” value came to 90%. Also, the inhibition at 1 µM in assay [1] was determined as 78%; at adrenergic α2C receptor, 99%; in assay [2], 99%; in assay [3] it was 93%; in [4], 86%; in assay [5], 95%. Further, the inhibition at 1 µM in assay [6] was determined as 102%; in assay [7] it was 98%; at dopaminergic D2 receptor, 98%; at muscarinic M3 receptor, 14%; on dopaminergic D3 receptor, 98%. Also, the “σ [%]” value in the assay on sigma σ receptor is listed as 30%.
For the compound `O=S(=O)(NCCCN1CCN(c2nsc3ccccc23)CC1)c1ccc2c(c1)OCO2` [Compound 269, N-[3-[4-(1,2-Benzothiazol-3-yl)piperazin-1-yl]propyl]-1,3-benzodioxole-5-sulphonamide], in the assay with adrenergic α1 receptor, the “α1 [%]” value stood at 97%. Moreover, the inhibition at 1 µM in [1] came out at 92%; at adrenergic α2C receptor, 101%; in [2], 101%; in assay [3], 98%; in [4], 96%; in assay [5] it was 92%. Moreover, the inhibition at 1 µM in assay [6] was found to be 101%; in assay [7], 99%; on dopaminergic D2 receptor, 99%; at muscarinic M3 receptor, 20%; on dopaminergic D3 receptor, 100%. Further, the “σ [%]” value in the assay on sigma σ receptor is 49%.

The values above are taken from patent US8822517B2, “Arylosulfonamides for the treatment of CNS diseases” (Adamed SP. Z O.O., priority 2010, dated 2014).
